Values quoted from earlier work in patent US10299493B2, “Dietary supplement compositions with enhanced delivery matrix, gummies, chocolates, atomizers and powders containing same, and methods of making same” (priority 2013, dated 2019).

Conditions: temperature of 20° C.

C/C=C/C=C/C(=O)[O-].[K+] [Potassium sorbate]
solubility in water: 58.2%
